Patent US7582618B2 (priority 2002, dated 2009)
Several values for one entry are separate records, joined by “and”; a condition that tells them apart may be missing. Equal entries are not always repeated. Entries after “also recorded” stand apart in the source; their conditions may differ. Where two headings read alike, the source gives them in different places.

How the values were obtained:
[1] = system: YFV (Vero); test: microbe, parasite or virus in culture; format: cell-based; conditions: Yellow fever virus
[2] = system: HepG2 cells; test: Mitochondrial DNA content (mtDNA/nuclear DNA); format: cell-based, human; conditions: 10 μM
Method: To assess the potential of mCyd to produce mitochondrial toxicity, several in vitro studies were conducted using the human hepatoma cell lines HepG2 or Huh7.
• a. HepG2 or huh7 cells were treated with compounds for 4 days, data represent at least three independent experiments • b. HepG2 cells were treated with compounds for 6 and 14 days, data represents at least three independent experiments • c. HepG2 cells were treated with compounds for 14 days • d. 17% cell (11 of 64) contained 1 or 2 enlarged mitochondria out of 25 in two independent experiments nd, not determined

[3] = Cytotoxicity (Table 10); conditions: rhesus monkey, MA-104 cells
[4] = system: HepG2 cells; test: Transmission electron microscopy of mitochondrial ultrastructure; conditions: 10 μM, 14 days
[5] = system: BVDV RNA; test: Intracellular BVDV RNA by Real Time RT-PCR in de novo-infected MDBK cells; format: cell-based; conditions: Bovine viral diarrhea virus isolates and strains, 18-hours post infection
[6] = Cytotoxicity (Table 10); conditions: human, KB cells
[7] = system: Punta Toro A (LLC-MK2); test: organism not typed; format: cell-based
[8] = Cytotoxicity (cell proliferation) assay; conditions: hamster, BHK-21 kidney cells
[9] = Human bone marrow clonogenic assay
[10] = system: DENV 2; test: Antiviral test (Table 8b); format: cell-based; conditions: Dengue virus
[11] = system: HepG2 cells; test: Mitochondria toxicity assay, lactic acid production
[12] = system: WNV (Vero); test: microbe, parasite or virus in culture; format: cell-based; conditions: West Nile virus
[13] = system: Yellow Fever virus; test: microbe, parasite or virus in culture; format: cell-based; conditions: read-out: composite EC50 range, Yellow Fever virus
[14] = Cytotoxicity (Table 10); conditions: human, HeLa-Ohio cells
[15] = in vitro; conditions: rhesus monkey
[16] = Cytotoxicity (cell proliferation) assay; conditions: human, Huh7 hepatoma cells
[17] = Cytotoxicity assay; conditions: mouse
[18] = system: REO-1; test: Antiviral test (Tables 8b, 8c); format: cell-based, double-stranded RNA viruses
[19] = system: BVDV NADL cp in MDBK cells; test: Plaque reduction assay; format: cell-based; conditions: Bovine viral diarrhea virus isolates and strains
Method: For each compound the effective concentration was determined in duplicate 24-well plates by plaque reduction assays. Cell monolayers were infected with 100 PFU/well of virus. Then, serial dilutions of test compounds in MEM supplemented with 2% inactivated serum and 0.75% of methyl cellulose were added to the monolayers. Cultures were further incubated at 37° C. for 3 days, then fixed with 50% ethanol and 0.8% Crystal Violet, washed and air-dried. Then plaques were counted to determine the concentration to obtain 90% virus suppression.

[20] = system: BVDV; test: Antiviral test (Table 8b); format: cell-based; conditions: Bovine viral diarrhea virus isolates and strains; table note: BHK for Bovine Viral Diarrhea Virus
[21] = Human bone marrow clonogenic assay; remark: listed apart in the source
[22] = system: Sb-1; test: microbe, parasite or virus in culture; format: cell-based, poliovirus Sabin type-1; conditions: Enterovirus C
[23] = system: BVDV (strain NADL) in MDBK cells; test: BVDV cell protection assay (CPA); format: cell-based; conditions: Bovine viral diarrhea virus isolates and strains
[24] = system: CVB-4; test: microbe, parasite or virus in culture; format: cell-based, Coxsackievirus B-4; conditions: Coxsackievirus, read-out: EC50 CVB-4
[25] = In vitro stability in human plasma; conditions: human plasma or crude human cytidine/deoxycytidine deaminase preparation, 37° C.
[26] = system: Huh7 cells; test: Mitochondria toxicity assay, lactic acid production; conditions: 10 μM, 4 days
[27] = system: DENV-2 in BHK cells; test: Cell protection assay; format: cell-based; conditions: Dengue virus, DENV2, DENV-2, BHK
[28] = Cytotoxicity (cell proliferation) assay; conditions: bovine, MDBK kidney cells
[29] = system: rig S15 mRNA; test: Cellular housekeeping mRNA control by RT-PCR in MDBK cells; format: cell-based, bovine; conditions: up to 125 μM
[30] = system: BVDV I-N-dlns ncp in MDBK cells; test: microbe, parasite or virus in culture; format: cell-based; conditions: Bovine viral diarrhea virus isolates and strains, read-out: Antiviral Efficacy EC90

With CC1(O)C(O)C(CO)OC1n1ccc(N)nc1=O (stereo not drawn) [mCyd, 4-Amino-1-(3,4-dihydroxy-5-hydroxymethyl-3-methyl-tetrahydro-furan-2-yl)-1H-pyrimidine-2-one] the EC50 [1] was 9 to 30 µM, the “mtDNA/nuclear DNA (% of Control), 6 day Treatment” value [2] was 117.3 ± 17.5 % of Control and the “mtDNA/nuclear DNA (% of Control), 14 day Treatment” value [2] was 99.7 ± 23.9 % of Control. The CC50 [3] was 200 µM, the CC50 ([3]; CC50, MA-104, Parainfluenza type 3 row) was over 200 µM and the “Electron Microscopy, Lipid Droplet Form.” value [4] was “Negative”. The “Electron Microscopy, Mito. Morphol.” value [4] was “No changes in cell architecture, or in mitochondrial number or morphology; also recorded: Normal^d”, the “cells with 1 to 2 enlarged mitochondria out of an average of 25 per cell” value [4] was 17% and the EC50 ([5]; read-out: EC50, BVDV RNA levels) was 1700 nM. The EC90 ([5]; read-out: EC90, BVDV RNA levels) was 2300 nM, the CC50 [6] was > 200 µM and 20 µg/mL to 30 µg/mL and the EC50 [7] was over 200 µM. For the same compound, the CC50 at 4 days [8] was 132 µM, the CC50 [9] was 14.1 ± 4.5 µM and the EC50 [10] was 95 µM. The “L-Lactate (% of Control), HepG2 Cells” value ([11]; 50 μM, 4 days) was 138.0 ± 8.9 % of Control, the “increase in lactic acid production” value ([11]; HepG2, 50 μM) was 38% and the EC50 [12] was 46 µM. The EC50 [13] was 9 to 80 µM, the CC50 [14] was at least 20 µg/mL and the CC50 [15] was over 200 µM. The CC50 at 4 days [16] was over 250 µM, the CC50 [17] was 2400 nM and the EC50 [18] was 13 µM. For the same compound, the EC50 [19] was 2570 ± 350 nM, the EC90 ([19]; read-out: Antiviral Efficacy EC90) was 4.63 ± 0.72 µM and the EC50 [20] was 2300 nM. For the same compound, the CC50 [21] was 13.9 ± 3.2 µM, the EC50 ([22]; read-out: EC50 Sb-1) was 6 µM and the EC50 ([22]; read-out: Sb-1 (Table 8b)) was 11.5 µM. For the same compound, the EC50 ([23]; 96 h, BVDV NADL cp, de novo infection, 4 days) was 670 ± 220 nM, the EC50 ([23]; BVDV MOI 0.16) was about 2200 nM and the EC50 [24] was 13 µM. The “in vitro stability / deamination to mUrd” value [25] was “remained essentially unchanged”, the “L-Lactate (% of Control), Huh7 Cells” value [26] was 98.0 ± 12.3 % of Control and the EC50 [27] was 95 µM. The CC50 at 4 days [28] was 36 µM, the “effect on level of rig S15 cellular mRNA control” value [29] was “No effect” and the EC90 [30] was 1490 nM.
